This data set can be described thus: Hot plate test, latency for pain reaction. Conditions: FIG. 48E. The format is in vivo, mice. How it is done: Epidemiological studies indicate that people with mood disorders are twice as likely to have chronic pain compared to people without mood disorders (Ohayon et al., Arch. Gen. Psychiatry 60: 39-47 (2003)). Although it is possible that pain contributes to the depressed mood, it is also possible that perception of pain is increased in people with mood disorders. To determine whether SCID mice have altered pain tolerance, the latency for pain reaction to a hot plate was measured. […] (FIG. 30) and at 55° C.
Because tolerance to pain (Example 26) is also linked to the serotonergic pathways, measurements of the latency to pain reaction on hot plate after saline, serotonin reuptake inhibitor fluoxetine (Prozac) or serotonin antagonist GR38032F (Zofran) injection were made.
Elevated plus maze tests, light/dark chamber tests, forced swim tests (FST) and hot plate tests were performed as described earlier.
For orientation: Hot-plate and tail-flick tests time the reaction to a heat stimulus.

Molecules are shown by their SMILES.

As for `O=c1cc(N2CCOCC2)oc2c1ccc1ccccc12` [NU7026, 2-(morpholin-4-yl)-benzo[h]chomen-4-one], the “time remaining on a hot surface” value is “remain on a hot surface for longer periods of time”. Also, the pain sensation entry (hot plate) was “decreased pain sensation”.

These data come from patent US20100130597A1, “DNA-PKCS MODULATES ENERGY REGULATION AND BRAIN FUNCTION” (The United State of America, as represented by the …, priority 2007, published 2010).
